Measured values as given in PMC4340763 (Journal of immunology (Baltimore, Md. : 1950), 2015).
Peptide text beside a SMILES is read from it.

biological target: soluble HLA-A*0201 molecules (Homo sapiens, UniProt P04439, D140Y/D185E/D98H/E176V/E277Q/G131W/G231S/I119V/I121R/I166T/I218V/L300P/L318F/N151K/N90K/P208A/P217A/Q86G/Q94H/R138H/R169H/T345S); experiment: Binding affinity of synthetic peptides to soluble HLA-A*0201 molecules; details: not given

Row | Compound | IC50 | Kd
1 | CC(C)C[C@H](NC(=O)[C@@H](N)Cc1ccccc1)C(=O)N[C@H](C(=O)N[C@@H](CS)C(=O)N[C@H](C(=O)N[C@@H](CC(=O)O)C(=O)N[C@@H](CCCNC(=N)N)C(=O)N[C@@H](CO)C(=O)N[C@H](C(=O)O)C(C)C)[C@@H](C)O)[C@@H](C)O [VP11/12_66–74] (H-FLTCTDRSV-OH) | 83 nM | 81 nM
2 | CC[C@H](C)[C@H](NC(=O)[C@@H](N)CCCNC(=N)N)C(=O)N[C@@H](CCC(N)=O)C(=O)N[C@@H](CCC(N)=O)C(=O)N[C@@H](Cc1ccc(O)cc1)C(=O)N[C@@H](CCSC)C(=O)N[C@@H](Cc1ccccc1)C(=O)N[C@@H](Cc1ccccc1)C(=O)N[C@@H](CCSC)C(=O)O [VP11/12_197–205] (H-RIQQYMFFM-OH) | 81 nM | 83 nM
3 | CC(C)C[C@H](NC(=O)[C@H](CC(C)C)NC(=O)[C@H](CCC(=O)O)NC(=O)[C@H](CC(N)=O)NC(=O)[C@H](CC(C)C)NC(=O)[C@@H](N)CCCNC(=N)N)C(=O)N[C@@H](C)C(=O)N[C@@H](Cc1ccc(O)cc1)C(=O)N[C@H](C(=O)O)C(C)C [VP11/12_220–228] (H-RLNELLAYV-OH) | 709 nM | 709 nM
4 | CSCC[C@H](N)C(=O)N[C@@H](CC(C)C)C(=O)N[C@@H](Cc1c[nH]c2ccccc12)C(=O)N[C@H](C(=O)N[C@H](C(=O)N[C@@H](CC(=O)O)C(=O)N[C@@H](CCCCN)C(=O)N[C@@H](Cc1c[nH]cn1)C(=O)N[C@H](C(=O)O)C(C)C)[C@@H](C)O)[C@@H](C)O [VP11/12_238–246] (H-MLWTTDKHV-OH) | 1290 nM | –
5 | CC(C)C[C@H](NC(=O)[C@H](CCCCN)NC(=O)[C@@H](NC(=O)[C@H](CC(C)C)NC(=O)[C@H](CC(C)C)NC(=O)[C@H](C)NC(=O)[C@H](CO)NC(=O)[C@H](CC(C)C)NC(=O)[C@H](C)N)[C@@H](C)O)C(=O)O [VP11/12_702–710] (H-ALSALLTKL-OH) | 313 nM | 313 nM

same assay, conditions: soluble HLA-A*0201 molecules

Row | Compound | binding affinity to soluble HLA-A*0201 molecules (in words)
6 | ILTQYWKYL [VP11/12_127–135] | did not bind
